Results on two molecules are retold here after article PMC5577655 (mSphere, 2017).

Each structure is given as a SMILES string. Where two headings read alike, the source gives them in different places.

The target of test [1] is T1, lysyl-tRNA synthetase 1 (LdLysRS-1) (Leishmania donovani, UniProt A0A3Q8IA00).
T1 construct: gene LdCL_150007600; full-length LdLysRS-1 (586 aa), N-terminal His6 tag
The test can be described thus: malachite green aminoacylation assay with recombinant enzyme; thermal shift of ~[…]°C. The test is classed as biochemical.

Test [2] deals with T1, lysyl-tRNA synthetase 1 (LdLysRS-1). Described as above. The test is classed as biochemical. This is another data set of the same source.

A word on the IC50: it is the point on the concentration scale where inhibition reaches its midpoint.

T1 sequence (A0A3Q8IA00 entry or part of it): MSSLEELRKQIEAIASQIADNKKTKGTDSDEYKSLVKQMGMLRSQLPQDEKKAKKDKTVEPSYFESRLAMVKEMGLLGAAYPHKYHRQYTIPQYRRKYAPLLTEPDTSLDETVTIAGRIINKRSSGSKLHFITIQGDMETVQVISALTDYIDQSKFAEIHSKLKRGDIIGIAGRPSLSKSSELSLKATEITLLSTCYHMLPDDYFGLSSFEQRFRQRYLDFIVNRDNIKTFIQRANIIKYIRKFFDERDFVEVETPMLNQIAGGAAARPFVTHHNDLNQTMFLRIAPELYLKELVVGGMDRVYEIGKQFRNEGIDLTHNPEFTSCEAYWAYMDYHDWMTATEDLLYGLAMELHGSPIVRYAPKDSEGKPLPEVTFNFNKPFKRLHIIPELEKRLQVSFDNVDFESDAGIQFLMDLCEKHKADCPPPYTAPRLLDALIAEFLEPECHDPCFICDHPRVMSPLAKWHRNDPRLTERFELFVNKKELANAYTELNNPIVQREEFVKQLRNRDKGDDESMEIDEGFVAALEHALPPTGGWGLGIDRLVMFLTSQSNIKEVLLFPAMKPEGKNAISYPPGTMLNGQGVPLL

Regarding `C[C@@H]1CCC[C@H](C[C@@H]2Cc3cc(O)cc(O)c3C(=O)O2)O1` [3-epi-isocladosporin], the IC50 in test [1] is approximately 25.5 µM. As for `C[C@H]1CCC[C@H](C[C@H]2Cc3cc(O)cc(O)c3C(=O)O2)O1` [cladosporin], the IC50 in test [2] is approximately 4.07 µM.
